Test results as given in patent US20230145868A1, “UREA INHIBITORS OF MICRO-RNA” (Board of Regents, The University of Texas System, priority 2020, published 2023).

Assays:
[1] = Microsomal stability assay, human; type: in vitro ADME; details: pH 7.4; human liver microsomes; 1 μM test compound; unit printed in b356 only
Experimental: (§1) The liver microsomal incubation mixture was composed of liver microsomes (with a concentration of 0.5 mg microsomal protein/ml), the test compound (1 μM), MgCl2 (3 mM), EDTA (1 mM) in potassium phosphate buffer (100 mM, pH 7.4). Control substrates used were Midazolam and Ketanserin. The reaction was initiated with the addition of an NADPH regeneration solution (1.3 mM NADPH) and maintained at 37° C. with shaking. At five sequential time points ranging from 0 to 45 min, aliquots of the mixture (50 μL) were removed and quenched with acetonitrile (100 μL) containing an internal standard control (imipramine) Samples were analyzed after vortexing and centrifugation by liquid chromatography-mass spectrometry (LC-MS/MS). The in vitro t1/2 was then calculated and clearance followed literature.

[2] = Microsomal stability assay, rat; type: in vitro ADME; details: rat, liver microsomes, pH 7.4, rat liver microsomes; 1 μM test compound; unit printed in b356 only
Experimental: as §1

[3] = Microsomal stability assay, mouse; type: in vitro ADME; details: mouse, liver microsomes, pH 7.4, mouse liver microsomes; 1 μM test compound; unit printed in b356 only
Experimental: as §1

miR-10b [4] = assay: Luciferase reporter assay of miR-10b inhibition, MCF7 cells; type: cell-based; details: Homo sapiens, MCF7, 48 h
Description: (§2) To identify miR-10b inhibitors, a luciferase reporter system was designed with complementary oligonucleotides for miR-10b.This luciferase reporter would repress Renilla luciferase signal in the presence of a functional mature miR-10b. However, in the presence of a small molecule that can inhibit mature miR-10b expression or affect its downstream function, the luciferase expression is restored again.
(§3) The PsiCHECK™-2 luciferase reporter vector was acquired from Promega™, Complementary oligonucleotides for hsa-miR-10b were designed based on the mature miRNA sequence and obtained from Thermo Fisher Scientific. In the design of the microRNA target sequence, several base pairs were added to have two different restriction sites recognizable by the enzyme SgfI at one side, and PmeI on the other (present in the vector as well). In addition, the insert was designed with a restriction site for SacI enzyme in order to have an additional site to digest the vector when monitoring colonies for the presence/absence of the insert. The designed oligonucleotides were annealed as follows: Complementary strands were mixed at a 1:1 molar ratio in a micro centrifuge tube. The mixture was diluted to a final concentration of 1 pmol/μl with a buffer solution of 10 mM Tris, 1 mM EDTA, and 50 mM NaCl (pH 8.0). Mixes were incubated at 95° C. for 5 min, and then the heat was reduced gradually for 70 min, until reaching 4° C. The annealed oligonucleotides were digested along with the PsiCHECK™2 vector with SgfI and PmeI and ligated at the 3′-UTR (downstream) of the Renilla luciferase reporter gene in the PsiCHECK™-2vector. Insert sequences were further confirmed in two ways: enzymatic digestion and sequencing.
(§4) MCF7 cells were seeded 24 h prior to transfection in 96 well plates (2.0×10^4 cells/well). For testing the sensitivity of the assay, antagomiRs and pre-miRs against miR-10b were used at a final concentration of 100 nM. For testing small molecule miRNA inhibitors, the compounds of interest were added to a final concentration of 10 μM. The assay was done in MCF7 or MDA-MB-231 cells at approximately 60% confluence using Lipofectamine in Opti-Mem media with the final vector concentration of 250 ng/mL. All transfections were performed in triplicate for statistical analysis. The cells were incubated at 37° C. for 6 h, followed by replacement of the transfected media with fresh media. After 48 h incubation, the media was removed, and cells were lysed and assayed with a Dual Luciferase Assay Kit (Promega) using a Vi-Tech luminometer. The ratio of Renilla to firefly luciferase expression was calculated for each of the triplicates.

miR-10b [5] = assay: Luciferase reporter assay of miR-10b inhibition, MDA-MB-231 cells; type: cell-based; details: Homo sapiens, MDA-MB-231, 48 h
Description: as §2, §3, §4

Cc1ccc(F)c(NC(=O)Nc2ccc(-c3cccc4[nH]nc(N)c34)cc2)c1 [Example 10, 1-(4-(3-amino-1H-indazol-4-yl)phenyl)-3-(2-fluoro-5-methylphenyl)urea, reference compound] gave a CLint scaled at 1 μM [1] of 8.8 mL/min/kg, a half-life at 1 μM [1] of 3.28 h and a CLint scaled at 1 μM [2] of 20.4 mL/min/kg. It also gave a half-life at 1 μM [2] of 2.03 h, a CLint scaled at 1 μM [3] of 86.5 mL/min/kg and a half-life at 1 μM [3] of 1.05 h. The fold induction at 10 µM (miR-10b [4]; Table 3, MCF7, 10 μM compound, vs negative control (DMSO), mean of triplicate, read-out: n-fold increase in luciferase expression, Mean) was 2.5, the fold induction at 10 µM (miR-10b [4]; Table 3, MCF7, 10 μM compound, vs negative control (DMSO), replicate #1, read-out: n-fold increase in luciferase expression, #1) was 2.74 and the fold induction at 10 µM (miR-10b [4]; Table 3, MCF7, 10 μM compound, vs negative control (DMSO), replicate #2, read-out: n-fold increase in luciferase expression, #2) was 2.52. The fold induction at 10 µM (miR-10b [4]; Table 3, MCF7, 10 μM compound, vs negative control (DMSO), replicate #3, read-out: n-fold increase in luciferase expression, #3) was 2.25, the fold induction at 10 µM (miR-10b [4]; Table 4, MCF7, 10 μM compound, vs negative control (DMSO), mean of triplicate, read-out: n-fold increase in luciferase expression, Mean) was 1.97 and the fold induction at 10 µM (miR-10b [4]; Table 4, MCF7, 10 μM compound, vs negative control (DMSO), replicate #1, read-out: n-fold increase in luciferase expression, #1) was 2.56. The fold induction at 10 µM (miR-10b [4]; Table 4, MCF7, 10 μM compound, vs negative control (DMSO), replicate #2, read-out: n-fold increase in luciferase expression, #2) was 1.58, the fold induction at 10 µM (miR-10b [4]; Table 4, MCF7, 10 μM compound, vs negative control (DMSO), replicate #3, read-out: n-fold increase in luciferase expression, #3) was 1.78 and the fold induction at 10 µM (miR-10b [4]; Table 6, MCF7, second biological replicant, 10 μM compound, mean of triplicate, read-out: n-fold increase in luciferase expression, Mean) was 17.9. For the same compound, the fold induction at 10 µM (miR-10b [4]; Table 6, MCF7, second biological replicant, 10 μM compound, replicate #1, read-out: n-fold increase in luciferase expression, #1) was 25.6, the fold induction at 10 µM (miR-10b [4]; Table 6, MCF7, second biological replicant, 10 μM compound, replicate #2, read-out: n-fold increase in luciferase expression, #2) was 14.6 and the fold induction at 10 µM (miR-10b [4]; Table 6, MCF7, second biological replicant, 10 μM compound, replicate #3, read-out: n-fold increase in luciferase expression, #3) was 13.4. The fold induction at 10 µM (miR-10b [5]; Table 5, MDA-MB-231, 10 μM compound, vs negative control (DMSO), mean of triplicate, read-out: n-fold increase in luciferase expression, Mean) was 1.87, the fold induction at 10 µM (miR-10b [5]; Table 5, MDA-MB-231, 10 μM compound, vs negative control (DMSO), replicate #1, read-out: n-fold increase in luciferase expression, #1) was 1.51 and the fold induction at 10 µM (miR-10b [5]; Table 5, MDA-MB-231, 10 μM compound, vs negative control (DMSO), replicate #2, read-out: n-fold increase in luciferase expression, #2) was 1.14. It also gave a fold induction at 10 µM (miR-10b [5]; Table 5, MDA-MB-231, 10 μM compound, vs negative control (DMSO), replicate #3, read-out: n-fold increase in luciferase expression, #3) of 2.95, a fold induction at 10 µM (miR-10b [5]; Table 7, MDA-MB-231, second biological replicant, 10 μM compound, mean of triplicate, read-out: n-fold increase in luciferase expression, Mean) of 1.97 and a fold induction at 10 µM (miR-10b [5]; Table 7, MDA-MB-231, second biological replicant, 10 μM compound, replicate #1, read-out: n-fold increase in luciferase expression, #1) of 2.99. It also gave a fold induction at 10 µM (miR-10b [5]; Table 7, MDA-MB-231, second biological replicant, 10 μM compound, replicate #2, read-out: n-fold increase in luciferase expression, #2) of 2.24 and a fold induction at 10 µM (miR-10b [5]; Table 7, MDA-MB-231, second biological replicant, 10 μM compound, replicate #3, read-out: n-fold increase in luciferase expression, #3) of 0.69.
